Legend:
Format in all cases: in vivo, human
[1] = tested on: patients with glaucoma or ocular hypertension; experiment: Phase 1/2 study Part 2: double-masked, randomized, active controlled, ocular hypotensive efficacy (IOP), twice daily; details: for mean change from baseline in IOP, primary endpoint: Part 2, Day 14, Hour 2, study eye; for IOP-lowering effect, mean change from baseline in the study eye at all postbaseline timepoints: Part 2, both Compound 1 groups (0.15%, 0.4%) p≤0.007, Timolol p≤0.004
[2] = tested on: patients with glaucoma or ocular hypertension; experiment: Phase 1/2 study Part 2: low-luminance ETDRS visual acuity
Text: Low-luminance visual acuity refers to visual acuity determined using the standard Early Treatment Diabetic Retinopathy Study (ETDRS) chart with a 2.0 log unit neutral density filter placed in front of the eye.
(§1) Part 1 was an open-label dose escalation study. The purpose of Part 1 of this study (WB007-001), was to assess the safety, tolerability, and IOP-lowering effects of a single drop of an ophthalmic solution containing [3-[(1S)-1-(1H-imidazole-5-yl)ethyl]-2-methylphenyl]methyl-2,2-dimethylpropanoate (Compound 1) with concentrations ranging from 0.05% to 0.4%. […] In addition to assessing the efficacy of Compound 1 on lowering IOP, the study also assessed the effects of the drug on visual function.
Additional analyses examining the effect of Compound 1 on visual function included low-luminance visual acuity and visual fields.

[3] = tested on: patients with glaucoma or ocular hypertension; experiment: Phase 1/2 study Part 2: visual field mean deviation; details: for visual field change in mean deviation: non-study eye, Day 14; for visual field mean deviation change from Baseline at Day 14: study eyes, positive change = improvement; for Improvement ≥1 dB in Study Eye, number of patients / Improvement ≥1 dB in Study Eye, percentage of patients / Improvement ≥1 dB in Treated Non-Study Eye, number of patients / Improvement ≥1 dB in Treated Non-Study Eye, percentage of patients: visual field
[4] = tested on: patients with glaucoma or ocular hypertension; experiment: Phase 1/2 study Part 2: pupil size
Text: as §1
The effect of Compound 1 on pupil size was assessed at the baseline visit and on Day 14.

[5] = tested on: patients with glaucoma or ocular hypertension; experiment: Phase 1/2 study: safety, tolerability and comfort; details: both doses (0.15%, 0.4%)
Text: as §1

## Cc1c(COC(=O)C(C)(C)C)cccc1[C@H](C)c1c[nH]cn1 [Compound 1, [3-[(1S)-1-(1H-imidazole-5-yl)ethyl]-2-methylphenyl]methyl-2,2-dimethylpropanoate]
[1]; 0.15% twice daily
  mean change from baseline in IOP, primary endpoint: −4.9±1.8 mm Hg
[1]; 0.4% twice daily
  mean change from baseline in IOP, primary endpoint: −5.1±2.5 mm Hg
[1]
  IOP-lowering effect, mean change from baseline in the study eye at all postbaseline timepoints: statistically significant IOP-lowering effects
[2]; non-study eye, 0.15%
  percentage of subjects achieving an increase in ETDRS visual acuity of 15 or more letters under low luminance on at least one study visit: 17.4%
[2]; non-study eye, 0.4%
  percentage of subjects achieving an increase in ETDRS visual acuity of 15 or more letters under low luminance on at least one study visit: 25.0%
[2]; patients receiving 0.15% or 0.4%
  effect on low luminance visual acuity: Dose related improvements in low luminance visual acuity
[2]; study eye, 0.15%
  percentage of subjects achieving an increase in ETDRS visual acuity of 15 or more letters under low luminance on at least one study visit: 8.7%
[2]; study eye, 0.4%
  percentage of subjects achieving an increase in ETDRS visual acuity of 15 or more letters under low luminance on at least one study visit: 16.7%
[3]; 0.15%
  visual field change in mean deviation: 0.4±1.5 dB
  visual field mean deviation change from Baseline at Day 14: 0.2±1.2 dB
  Improvement ≥1 dB in Study Eye, number of patients: 9 patients
  Improvement ≥1 dB in Study Eye, percentage of patients: 39%
  Improvement ≥1 dB in Treated Non-Study Eye, number of patients: 7 patients
  Improvement ≥1 dB in Treated Non-Study Eye, percentage of patients: 30%
[3]; 0.4%
  visual field change in mean deviation: −0.2±1.4 dB
  visual field mean deviation change from Baseline at Day 14: −0.5±2.3 dB
  Improvement ≥1 dB in Study Eye, number of patients: 6 patients
  Improvement ≥1 dB in Study Eye, percentage of patients: 25%
  Improvement ≥1 dB in Treated Non-Study Eye, number of patients: 6 patients
  Improvement ≥1 dB in Treated Non-Study Eye, percentage of patients: 25%
[4]; either dose (0.15%, 0.4%)
  effect on pupil size: no meaningful decrease in pupil size
[4]; study eyes, 0.15%
  mean change in pupil size from Baseline to Day 14 at Hour 0: 0.0 mm
[4]; study eyes, 0.4%
  mean change in pupil size from Baseline to Day 14 at Hour 0: −0.1 mm
[4]; treated non-study eyes, 0.15%
  mean change in pupil size from Baseline to Day 14 at Hour 0: 0.0 mm
[4]; treated non-study eyes, 0.4%
  mean change in pupil size from Baseline to Day 14 at Hour 0: −0.1 mm
[5]
  safety and tolerability: safe and well-tolerated

## CC(C)(C)NC[C@H](O)COc1nsnc1N1CCOCC1 [Timolol, timolol, reference compound]
[1]; 0.5% timolol ophthalmic solution
  mean change from baseline in IOP, primary endpoint: −6.0±3.0 mm Hg
[1]
  IOP-lowering effect, mean change from baseline in the study eye at all postbaseline timepoints: statistically significant IOP-lowering effects
[2]; non-study eye, timolol 0.5%
  percentage of subjects achieving an increase in ETDRS visual acuity of 15 or more letters under low luminance on at least one study visit: 8.3%
[2]; study eye, timolol 0.5%
  percentage of subjects achieving an increase in ETDRS visual acuity of 15 or more letters under low luminance on at least one study visit: 0%
[3]; Timolol 0.5%
  visual field change in mean deviation: −2.0±3.4 dB
  visual field mean deviation change from Baseline at Day 14: −1.2±2.3 dB
  Improvement ≥1 dB in Study Eye, number of patients: 2 patients
  Improvement ≥1 dB in Study Eye, percentage of patients: 17%
  Improvement ≥1 dB in Treated Non-Study Eye, number of patients: 0 patients (0%)
  Improvement ≥1 dB in Treated Non-Study Eye, percentage of patients: 0 patients (0%)
[4]; study eyes, Timolol 0.5%
  mean change in pupil size from Baseline to Day 14 at Hour 0: −0.1 mm
[4]; treated non-study eyes, Timolol 0.5%
  mean change in pupil size from Baseline to Day 14 at Hour 0: −0.1 mm
